Assay results as given in patent US20140315738A1, “MARINE MEDAKA GENES RESPONDING TO THE EXPOSURE OF ENDOCRINE-DISRUPTING CHEMICALS, AND METHOD FOR DIAGNOSING AN AQUATIC ECO-SYSTEM CONTAMINATION USING SAME” (priority 2011, published 2014).

System: Javanese medaka (Oryzias javanicus) livers
Format: in vivo
Settings: 76 μg/L, 48 hr, liver
Protocol: Javanese medaka was cultured in natural seawater filtered through three types of filters (10, 10 and 1 μm). Water temperature was fixed at 25° C. with underwater heater, and Artemia salina nauplii were fed once a day.
To 3 L beaker with 2 L filtered seawater therein, 10 male Javanese medaka bred in culture water tank were transported each time, and acclimated for 24 hr. […] Additionally, five Javanese medaka of Example <1-1> were exposed to BPA (76 μg/L) for 48 hr. […] The Javanese medaka was transported to ice water, one at a time, which momentarily stunned it, followed by beheading and evisceration and liver removal.
To the Javanese medaka livers of BPA exposed group (48 hr) produced from Example <1-2>, and of control group without exposure, 1 ml of TRI Reagent solution (Molecular Research Center Inc, Cincinnati, Ohio, USA) was added, homogenized with glass homogenizer, and left at room temperature for 5 min. Next, chloroform (200 μl) was added and mixed, left at room temperature for 10 min. After centrifugation for 15 min (12,000×g, 4° C.), supernatant was obtained, to which isopropanol (500 μl) was added and left at room temperature for 5 min. After centrifugation for about 20 min (12,000×g, 4° C.), solution was removed, thus leaving precipitate. To the precipitate, 70% ethanol solution (50 μl) was added and after centrifugation for 5 min, ethanol solution was removed, and the precipitate RNA was dried. After drying, the product was dissolved in appropriate amount of DEPC (diethylpyrocarbonate)-treated water.
The entire RNA of the distilled exposed group and non-exposed group were labeled with Cy3 and Cy5 as follows, using Agilent's Low RNA Input Linear Amplification Kit Plus (Agilent Technologies, USA). To be specific, RNA (1 μg) was mixed with dT-promoter primer and MMLV-Reverse transcriptase. After reverse transcription at 40° C. for 2 hr, T7 polymerase was added, and linear amplification was done at 40° C. for 2 hr. After the amplification process explained above, the samples of experimental and control groups were labeled with Cy3-CTP and Cy5-CTP, respectively.
Fluorescent-labeled cDNA sample was purified with Qiagen PCR purification kit, and eluted with distilled water. The purified, fluorescent-labeled cDNA sample was added to hybridization buffer (3×SSC, 0.3% SDS, 50% formamide, 20 μg Cot-1 DNA, 20 μg yeast tRNA), and concentrated with microcon YM-30. After hybridization, the hybridized compound was heated at 95° C. for 3 min for denaturization, and the temperature of the heated, hybridized compound was decreased by centrifugation for 30 sec at 12,000 g. The produced Javanese medaka cDNA microarray was covered with coverslip, and the denaturized, hybridized compound was pipetted. The microarray was put into GT-Hyb chamber for reaction to occur at 65° C. for 16 hr. After hybridization, the microarray was taken out of the chamber, underwent cleansing process as explained below, rotated and dried, and stored in a dark room until scanning. The Javanese medaka microarray was then scanned with Axon GenePix 4000B scanner (Axon Instrument, USA). On the GenePix Pro 6.0 program, dots from the scanned image were gridded using gridding file, and quantified to produce GPR file including analysis on cy5/Cy3 magnitudes and ratios.
Based on the GPR file obtained with the GenePix Pro Program, the following analysis was made using analysis program, i.e., GeneSpring 7.3.1 (Agilent Technologies, USA). Normalization: by LOWESS (locally weighted regression scatterplot smoothing). Reliable gene): significant genes were obtained by flagging out dots whose sums of medial values were less than the background, or dots whose standard deviations of pixel values are not significant. Significant genes: dots whose normalized ratio is at […] higher interval, were screened. […]

[1] = Down-regulation, + = increased expression level
[2] = Up-regulation, − = decreased expression level

CC(C)(c1ccc(O)cc1)c1ccc(O)cc1 [BPA, Bisphenol A]
Fold difference, 40S ribosomal protein S19 (No. 115) [1]: +2.00 fold | Fold difference, ATP citrate lyase (ACLY), transcript variant 2 (No. 154) [1]: +2.84 fold | Fold difference, ATP-binding cassette transporter sub-family G member 2b (No. 146) [1]: +2.59 fold | Fold difference, GTP cyclohydrolase 1 precursor (No. 148) [1]: +2.60 fold | Fold difference, Iron-responsive element-binding protein 1 (No. 141) [1]: +2.25 fold | Fold difference, Isocitrate dehydrogenase (No. 153) [1]: +2.72 fold | Fold difference, NADH dehydrogenase subunit 4 (No. 126) [1]: +2.08 fold | Fold difference, Nedd4 family interacting protein 2 (No. 132) [1]: +2.13 fold | Fold difference, Restin (Cytoplasmic linker protein-170 alpha-2) (No. 133) [1]: +2.14 fold | Fold difference, Ribosomal protein S14, transcript variant 4 (No. 158) [1]: +3.11 fold | Fold difference, TBT-binding protein (No. 120) [1]: +2.02 fold | Fold difference, Thyroid hormone receptor-associated protein complex 150 kDa component (No. 149) [1]: +2.62 fold | Fold difference, Transforming growth factor-beta-induced protein ig-h3 (No. 114) [1]: +2.00 fold | Fold difference, Translation initiation factor eIF-2B subunit epsilon (No. 157) [1]: +3.00 fold | Fold difference, Transmembrane protein 85 (No. 159) [1]: +5.22 fold | Fold difference, adult alpha-type globin (No. 147) [1]: +2.59 fold | Fold difference, alcohol dehydrogenase Class VI (ADH8) (No. 116) [1]: +2.01 fold | Fold difference, alpha-2-macroglobulin (No. 119) [1]: +2.01 fold | Fold difference, alpha-2-macroglobulin-2 (No. 123) [1]: +2.03 fold | Fold difference, apolipoprotein A-IV4 (No. 156) [1]: +2.94 fold | Fold difference, arginyl-tRNA synthetase (No. 145) [1]: +2.52 fold | Fold difference, calreticulin (No. 142) [1]: +2.25 fold | Fold difference, carboxyl ester lipase, tandem duplicate 2 (No. 118) [1]: +2.01 fold | Fold difference, catalase (No. 135) [1]: +2.16 fold | Fold difference, choriogenin L (No. 130) [1]: +2.12 fold | Fold difference, chymotrypsinogen 2-like protein (No. 140) [1]: +2.22 fold | Fold difference, complement component C9 (No. 122) [1]: +2.03 fold | Fold difference, complement factor B/C2-B (No. 131) [1]: +2.12 fold | Fold difference, complement regulatory plasma protein (No. 128) [1]: +2.11 fold | Fold difference, cyclin B2 (No. 152) [1]: +2.66 fold | Fold difference, cyclin Y-like 1 (No. 127) [1]: +2.09 fold | Fold difference, decorin mRNA (No. 155) [1]: +2.87 fold | Fold difference, delta 6-desaturase (No. 143) [1]: +2.39 fold | Fold difference, glutathione S transferase Rho-class (No. 162) [1]: +6.90 fold | Fold difference, heat shock protein 84b (No. 160) [1]: +5.53 fold | Fold difference, hepcidin-like precursor (No. 125) [1]: +2.07 fold | Fold difference, hypoxanthine phosphoribosyltransferase 1 (No. 138) [1]: +2.17 fold | Fold difference, kelch domain containing 10 (No. 144) [1]: +2.42 fold | Fold difference, kelch-like ECH-associated protein 1b (No. 124) [1]: +2.06 fold | Fold difference, keratin 15 (No. 121) [1]: +2.02 fold | Fold difference, malate dehydrogenase (No. 117) [1]: +2.01 fold | Fold difference, ornithine decarboxylase antizyme large isoform ORF1 (No. 134) [1]: +2.15 fold | Fold difference, protein kinase C and casein kinase substrate in neurons 2 (No. 129) [1]: +2.12 fold | Fold difference, protein phosphatase 2A regulatory subunit B′ delta isoform (No. 151) [1]: +2.63 fold | Fold difference, ring finger protein 141 (No. 136) [1]: +2.16 fold | Fold difference, sex hormone-binding globulin (No. 150) [1]: +2.62 fold | Fold difference, warm-temperature-acclimation-related-65 kDa-protein (C79) (No. 161) [1]: +5.88 fold | Fold difference, 5,10-methylenetetrahydrofolate reductase (NADPH)-like mRNA (No. 106) [2]: −2.06 fold | Fold difference, 40S ribosomal protein S18 (No. 89) [2]: −2.43 fold | Fold difference, 60S acidic ribosomal protein P1 (No. 100) [2]: −2.13 fold | Fold difference, ATPase, H+ transporting, lysosomal, V1 subunit E isoform 1 (No. 109) [2]: −2.04 fold | Fold difference, DEAD-box RNA-dependent helicase p68 mRNA (No. 113) [2]: −2.01 fold | Fold difference, Glycerol-3-phosphate dehydrogenase (No. 80) [2]: −3.03 fold | Fold difference, HSPC038 protein (No. 79) [2]: −3.05 fold | Fold difference, MHC Class I Region (No. 74) [2]: −3.70 fold | Fold difference, Putative transmembrane 4 superfamily member protein (No. 111) [2]: −2.02 fold | Fold difference, TRAF-binding protein (No. 78) [2]: −3.17 fold | Fold difference, Transcription initiation factor IIA gamma chain (No. 108) [2]: −2.06 fold | Fold difference, Uridine phosphorylase 1 (No. 99) [2]: −2.16 fold | Fold difference, bromodomain containing 2 (RING3) gene (No. 92) [2]: −2.35 fold | Fold difference, c-type lysozyme mRNA (No. 98) [2]: −2.18 fold | Fold difference, carnitine O-acetyltransferase precursor (No. 83) [2]: −2.78 fold | Fold difference, cathepsin F (No. 105) [2]: −2.08 fold | Fold difference, choriogenin Hminor (No. 102) [2]: −2.09 fold | Fold difference, cyclin G2 (No. 95) [2]: −2.27 fold | Fold difference, cysteine dioxygenase (No. 94) [2]: −2.32 fold | Fold difference, estrogen receptor beta 2 (No. 91) [2]: −2.37 fold | Fold difference, eukaryotic peptide chain release factor GTP-binding subunit (No. 88) [2]: −2.45 fold | Fold difference, glucose-regulated protein 94 (No. 104) [2]: −2.09 fold | Fold difference, glutathione S-transferase (No. 93) [2]: −2.33 fold | Fold difference, heart-type fatty acid-binding protein (No. 101) [2]: −2.12 fold | Fold difference, leukocyte elastase inhibitor (No. 110) [2]: −2.04 fold | Fold difference, mitogen-activated protein kinase 1 (No. 107) [2]: −2.06 fold | Fold difference, mitogen-activated protein kinase (p38) (No. 112) [2]: −2.02 fold | Fold difference, muscleblind mRNA (No. 85) [2]: −2.53 fold | Fold difference, phosphoenolpyruvate carboxykinase (No. 86) [2]: −2.51 fold | Fold difference, proline rich 6 (No. 71) [2]: −5.99 fold | Fold difference, proteasome subunit, beta type 8 (No. 81) [2]: −2.96 fold | Fold difference, protein kinase C and casein kinase substrate in neurons 1 (No. 96) [2]: −2.22 fold | Fold difference, protein phosphatase 2 regulatory subunit B beta (No. 87) [2]: −2.50 fold | Fold difference, protein tyrosine phosphatase-like, member b (No. 77) [2]: −3.23 fold | Fold difference, retinoid X receptor beta (RXRB) gene (No. 76) [2]: −3.42 fold | Fold difference, ribosomal protein L13 (No. 103) [2]: −2.09 fold | Fold difference, septin 7b (sept7b), transcript variant 1 (No. 97) [2]: −2.20 fold | Fold difference, telomerase reverse transcriptase gene (No. 72) [2]: −4.31 fold | Fold difference, trypsinogen (No. 82) [2]: −2.88 fold | Fold difference, trypsinogen (No. 90) [2]: −2.42 fold | Fold difference, tubulin, beta 5 (No. 84) [2]: −2.56 fold | Fold difference, uridine phosphorylase 2 (No. 73) [2]: −3.77 fold | Fold difference, vitellogenin II (No. 75) [2]: −3.69 fold
